Experiments:
Conditions in all cases: 72 h
Caco-2 [1] = assay: cell viability relative to DMSO; higher = less toxic
Calu-3 [2] = assay: as above
HepG2 [3] = assay: as above
U2OS [4] = assay: as above
Vero E6 [5] = assay: as above
Calu-3 [6] = assay: relative viability EC50 (midpoint between 100% and the lowest measured viability); higher = less toxic
HepG2 [7] = assay: as above
Vero E6 [8] = assay: as above
Caco-2 [9] = assay: drug sensitivity score (DSS) for viability; higher = more toxic; extreme values may be limits of the assay
Calu-3 [10] = assay: as above
HepG2 [11] = assay: as above
U2OS [12] = assay: as above
Vero E6 [13] = assay: as above
U2OS [14] = assay: relative viability EC50 (midpoint between 100% and the lowest measured viability); higher = less toxic
Caco-2 [15] = assay: as above

Row | Structure (SMILES) | cell viability (Caco-2 [1]; 1 nM) | cell viability (Caco-2 [1]; 10 nM) | cell viability (Caco-2 [1]; 100 nM) | cell viability (Caco-2 [1]; 1000 nM) | cell viability (Caco-2 [1]; 10000 nM) | cell viability (Calu-3 [2]; 1 nM) | cell viability (Calu-3 [2]; 10 nM) | cell viability (Calu-3 [2]; 100 nM) | cell viability (Calu-3 [2]; 1000 nM) | cell viability (Calu-3 [2]; 10000 nM) | cell viability (HepG2 [3]; 1 nM) | cell viability (HepG2 [3]; 10 nM) | cell viability (HepG2 [3]; 100 nM) | cell viability (HepG2 [3]; 1000 nM) | cell viability (HepG2 [3]; 10000 nM) | cell viability (U2OS [4]; 1 nM) | cell viability (U2OS [4]; 10 nM) | cell viability (U2OS [4]; 100 nM) | cell viability (U2OS [4]; 1000 nM) | cell viability (U2OS [4]; 10000 nM) | cell viability (Vero E6 [5]; 1 nM) | cell viability (Vero E6 [5]; 10 nM) | cell viability (Vero E6 [5]; 100 nM) | cell viability (Vero E6 [5]; 1000 nM) | cell viability (Vero E6 [5]; 10000 nM) | relative viability EC50 (Calu-3 [6]) | relative viability EC50 (HepG2 [7]) | relative viability EC50 (Vero E6 [8]) | drug sensitivity score (Caco-2 [9]) | drug sensitivity score (Calu-3 [10]) | drug sensitivity score (HepG2 [11]) | drug sensitivity score (U2OS [12]) | drug sensitivity score (Vero E6 [13]) | relative viability EC50 (U2OS [14]) | relative viability EC50 (Caco-2 [15])
1 | COC(=O)Nc1nc2cc(Sc3ccccc3)ccc2[nH]1 [fenbendazole] | 94.2% | 95.8% | 104% | 81.3% | 66.2% | 98.1% | 86.1% | 97.7% | 83.6% | 86.4% | 103% | 105% | 93.3% | 79.1% | 41% | 103% | 97.8% | 101% | 83.5% | 61.7% | 105% | 108% | 104% | 90.2% | 46.7% | > 10 µM | 1.39 µM | 1.81 µM | 3.8 | 1 | 5.6 | 4.1 | 4.5 |  | 
2 | C[C@]1(c2nc3c(C(N)=O)cccc3[nH]2)CCCN1 [veliparib] |  |  |  |  |  | 105% | 100% | 100% | 111% | 92.1% | 105% | 107% | 106% | 96.1% | 101% | 96.7% | 104% | 96.8% | 106% | 96.6% |  |  |  |  |  | > 10 µM | > 10 µM |  |  | 0 | 0 | 0 |  | > 10 µM | 
3 | O=C(O)c1cc(N2N=C(C(F)(F)F)/C(=C/c3ccc(-c4ccccc4)o3)C2=O)ccc1Cl [EN460] | 101% | 95.2% | 101% | 97.8% | 96.3% | 102% | 89.9% | 97.6% | 92.6% | 100% | 106% | 97.9% | 101% | 105% | 92.1% | 101% | 102% | 97.9% | 98.6% | 100% |  |  |  |  |  | > 10 µM | > 10 µM |  | 0 | 0 | 0 | 0 |  | > 10 µM | > 10 µM
4 | Cn1c(=O)c2[nH]c(Br)nc2n(C)c1=O [pamabrom] | 90.3% | 103% | 91% | 109% | 101% | 105% | 99.3% | 100% | 103% | 105% | 100% | 94.8% | 92.9% | 89.7% | 112% | 98.6% | 99.8% | 97.9% | 102% | 96.4% |  |  |  |  |  | > 10 µM | > 10 µM |  | 0 | 0 | 0 | 0 |  | > 10 µM | > 10 µM
5 | CCCCCCCC/C=C/CCCCCCCC(=O)OC[C@H]1O[C@@H](n2ccc(N)nc2=O)C(F)(F)[C@@H]1O [gemcitabine-elaidate] | 95.3% | 96.1% | 79.7% | 68.5% | 67.6% | 106% | 90.1% | 69.1% | 57.8% | 35.2% | 104% | 57.6% | 36.5% | 35.8% | 38.5% | 105% | 110% | 70.2% | 77% | 70.7% | 105% | 104% | 55.6% | 61.5% | 58.3% | 0.179 µM | 0.0077 µM |  | 7.6 | 12.3 | 25.2 | 8.2 | 13.4 |  | 
6 | Cc1nc(C)c(-c2ccc(C3CCC(CC(=O)O)CC3)cc2)nc1C(N)=O (configuration not stated) [AZD7687] | 116% | 99.6% | 97.7% | 102% | 86.2% | 104% | 104% | 98.2% | 96.7% | 105% | 105% | 104% | 109% | 102% | 92.1% |  |  |  |  |  | 103% | 100% | 97.3% | 99.9% | 98.5% | > 10 µM | > 10 µM | > 10 µM | 0.1 | 0 | 0 |  | 0 |  | > 10 µM
7 | NC(=O)c1cccnc1 [nicotinamide] | 100% | 107% | 94.9% | 99.2% | 101% | 107% | 114% | 120% | 110% | 94.1% | 114% | 103% | 101% | 101% | 90.2% |  |  |  |  |  | 107% | 108% | 102% | 104% | 99.5% | > 10 µM | > 10 µM | > 10 µM | 0 | 0 | 0 |  | 0 |  | > 10 µM
8 | O=C(c1ccccn1)c1cnn2c(-c3ccncc3)ccnc12 [ocinaplon] |  |  |  |  |  | 98.7% | 93.6% | 104% | 95.7% | 107% | 108% | 98.7% | 107% | 93.5% | 95.1% | 94% | 103% | 99.2% | 102% | 99.2% | 104% | 99.2% | 100% | 102% | 102% | > 10 µM | > 10 µM | > 10 µM |  | 0 | 0 | 0 | 0 | > 10 µM | 
9 | CC(=O)Nc1ccc(OCC(O)CNC(C)C)cc1 (configuration not stated) [practolol] | 107% | 93.5% | 81.2% | 91.7% | 92% | 108% | 114% | 111% | 100% | 99.7% | 94.1% | 105% | 97.3% | 109% | 87.3% |  |  |  |  |  | 110% | 102% | 106% | 106% | 93.7% | > 10 µM | > 10 µM | > 10 µM | 0.4 | 0 | 0 |  | 0 |  | > 10 µM
10 | CC(C)c1nnc(-c2ccc(-c3ccccc3)nc2)n1-c1cccc2nonc12 [ASP-2535] | 104% | 99% | 96.4% | 95.5% | 96.2% | 103% | 92.2% | 103% | 93.3% | 103% | 104% | 106% | 107% | 107% | 88.7% |  |  |  |  |  | 98.8% | 102% | 97.8% | 102% | 92.9% | > 10 µM | > 10 µM | > 10 µM | 0 | 0 | 0 |  | 0 |  | > 10 µM
11 | CCCN(CCC)C(=O)C(CCC(=O)O)NC(=O)c1ccccc1 (configuration not stated) [proglumide] | 102% | 105% | 95.7% | 104% | 102% | 100% | 113% | 104% | 89.9% | 96.2% | 98% | 104% | 107% | 109% | 106% |  |  |  |  |  | 104% | 100% | 98.8% | 97.8% | 107% | > 10 µM | > 10 µM | > 10 µM | 0 | 0 | 0 |  | 0 |  | > 10 µM
12 | c1ccc2c(c1)CCCC2C1=NCCN1 (configuration not stated) [tetrahydrozoline] | 105% | 101% | 99% | 92.5% | 106% | 109% | 97.9% | 112% | 110% | 99.5% | 93% | 104% | 91.2% | 100% | 104% |  |  |  |  |  | 68.7% | 103% | 61.2% | 108% | 68.4% | > 10 µM | > 10 µM |  | 0 | 0 | 0 |  | 0.7 |  | > 10 µM
13 | Cc1cc(C(=O)NOCCO)c(Nc2ccc(I)cc2F)n(C)c1=O [AZD8330] | 86.1% | 83.3% | 70% | 62.1% | 66.3% | 78.8% | 69.5% | 44% | 29.3% | 25.7% | 78.2% | 34% | 24% | 20.1% | 18.4% | 93.1% | 94% | 86.2% | 37.3% | 28.3% | 89.5% | 72.1% | 52% | 47.7% | 49.2% | 0.0118 µM | 0.0026 µM | 0.0072 µM | 12 | 24.3 | 35 | 13.3 | 19.2 | 0.265 µM | 
14 | C[C@@H](N[C@H]1CCCC[C@@H]1NC(=O)c1ccc(Cl)cc1)c1cccc2ccccc12 [Calhex-231] | 104% | 91.7% | 91.6% | 102% | 92.9% | 91.9% | 108% | 95.9% | 109% | 85.8% | 97.9% | 101% | 95.7% | 97.9% | 68.6% | 98.7% | 96.2% | 99.8% | 94.1% | 87.3% | 103% | 104% | 102% | 98.9% | 93.4% | > 10 µM |  | > 10 µM | 0 | 0.1 | 1.7 | 0.3 | 0 | > 10 µM | > 10 µM
15 | CCCCOc1ccc(-c2cncc(C(=O)NCc3cccnc3N3CCOCC3)c2)cc1Cl | 92.8% | 104% | 94.7% | 102% | 74.8% | 107% | 96.4% | 92.9% | 104% | 90.4% | 99.7% | 93% | 113% | 106% | 106% | 104% | 103% | 99.5% | 106% | 92.8% | 102% | 102% | 100% | 96.5% | 94.4% | > 10 µM | > 10 µM | > 10 µM | 0.8 | 0 | 0 | 0 | 0 | > 10 µM | 
16 | CCCCC1=NC2(CCCC2)C(=O)N1Cc1ccc(-c2ccccc2-c2nnn[nH]2)cc1 [irbesartan] | 109% | 97.1% | 106% | 104% | 109% | 100% | 97.1% | 100% | 101% | 108% | 107% | 104% | 102% | 99.9% | 106% |  |  |  |  |  | 100% | 101% | 99.7% | 93.6% | 94.6% | > 10 µM | > 10 µM | > 10 µM | 0 | 0 | 0 |  | 0 |  | > 10 µM

Reference: the supplement of paper PMC13380429
